In paper PMC9781803, “Phenotypic and Target-Directed Screening Yields New Acaricidal Alternatives for the Control of Ticks” (Molecules, 2022):
Like-named read-outs stand apart in the source and are kept apart here.

Legend:
[1] = target: R. microplus triosephosphate isomerase (RmTIM) (Rhipicephalus microplus, UniProt A8B3A8); experiment: biochemical; conditions: for inhibition at 100 µM / inhibition at 10 µM: 1 h incubation, read-out: % Inhibition of Enzymatic Activity of RmTIM; for IC50: RmTIM
Description: (§1) R. microplus triosephosphate isomerase (RmTIM) and Homo sapiens triosephosphate isomerase (HsTIM) were expressed in Escherichia coli, and purified as previously described in the literature. Protein concentration was determined by absorbance measurements at 280 nm for RmTIM (ε = 33440 M^−1cm^−1) and HsTIM (ε = 33460 M^−1cm^−1). Enzymatic activity was determined following the reaction of the conversion of glyceraldehyde-3-phosphate to dihydroxyacetone phosphate in a coupled enzyme assay using α-glycerol-phosphate dehydrogenase. The decrease in absorbance at 340 nm was recorded in a multiplate reader Varioskan™ Flash Multimode Reader (Thermo Scientific^TM, Waltham, MA, USA) at 25 °C. The reaction mixture ([…], pH 7.4) contained 100 mM triethanolamine, 10 mM EDTA, 0.2 mM NADH, 1 mM glyceraldehyde-3-phosphate, and 0.9 units of α-glycerol-phosphate dehydrogenase. The reaction was initiated by the addition of 5 ng/mL of the TIM of interest. For the inhibition studies (incubation mixture), TIM was incubated at a concentration of 5 mg/mL in a buffer of pH 7.4 containing 100 mM triethanolamine, 10 mM EDTA, and 10% DMSO at 25 °C for 1 h. The mixture also contained the compounds, dissolved in DMSO, at final concentrations of 10 and 100 μM. After 1 h, 10 μL of the incubation mixture was added to the reaction mixture, to a final volume of 100 μL in a 96-well plate. None of the molecules tested here affected the activity of α-glycerol-phosphate dehydrogenase (checked in situ on the reaction mixture inhibited, with the addition of fresh α-glycerol-phosphate dehydrogenase and running the measurement again). The IC50 value was taken as the concentration of drug needed to reduce the enzymatic activity by 50%, and was analyzed using OriginLab 8.5 Corporation, Northampton, MA, USA, sigmoidal regression (% of enzymatic activity vs. the logarithm of the compound concentration). The tests were performed in triplicate in two independent experiments.

[2] = system: J774.1 murine macrophages; experiment: Cytotoxicity assay on murine macrophages (MTT); format: cell-based; conditions: for EC50: read-out: EC50 (µM) for Mammalian Cells; for IC50: J774.1, 48 h, read-out: IC50 (µM) Mammalian Cells
Description: J774.1 murine macrophages (ATCC, Rockville, MD, USA) were grown in a DMEM culture medium containing 4 mM L-glutamine, and supplemented with 10% FCS. The cells were seeded into a 96-well plate (5 × 10^4 cells in 200 µL culture medium) and incubated at 37 °C in a 5% CO2 atmosphere for 48 h, to allow cell adhesion before drug testing. Afterward, the cells were exposed for 48 h to the compounds (25–400 μM) or the vehicle (0.4% DMSO), and additional controls (cells in medium) were used in each test. Cell viability was then assessed by measuring the mitochondria-dependent reduction of MTT to formazan: for this, MTT in sterile PBS (0.2% glucose), pH 7.4, was added to the macrophages, to a final concentration of 0.1 mg/mL, and the cells were then incubated at 37 °C for 3 h. After removing the medium, the formazan crystals were dissolved in 180 μL of DMSO and 20 μL of MTT buffer (0.1 M glycine, 0.1 M NaCl, 0.5 mM EDTA, pH 10.5), and the absorbance was measured at 560 nm. The IC50 was defined as the drug concentration at which 50% of the cells were viable, relative to the control (no drug added), and was determined by analysis using OriginLab 8.5 Corporation, Northampton, MA, USA, sigmoidal regression (% of viable cells compared to the logarithm of the compound concentration). The tests were performed in triplicate in two independent experiments.

[3] = target: T1, Homo sapiens triosephosphate isomerase (HsTIM) (Homo sapiens, UniProt P60174); experiment: Enzymatic activity of TIM, coupled enzyme assay; format: biochemical
T1 construct: made in house; host or cells: Escherichia coli
T1 sequence (P60174 whole entry): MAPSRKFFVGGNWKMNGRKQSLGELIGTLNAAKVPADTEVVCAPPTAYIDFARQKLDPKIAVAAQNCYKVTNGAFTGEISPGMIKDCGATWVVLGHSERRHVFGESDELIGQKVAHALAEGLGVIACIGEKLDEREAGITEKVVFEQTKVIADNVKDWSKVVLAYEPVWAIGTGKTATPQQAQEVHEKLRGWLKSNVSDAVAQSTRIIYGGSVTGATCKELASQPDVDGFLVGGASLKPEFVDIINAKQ
Description: as §1

R. microplus = experiment: Acaricidal activity on R. microplus (LIT and AIT, overall statement); format: in vivo; conditions: LIT 1 mM and AIT 1.5 mM
Description: After immersion, the fully engorged females were lightly dried with absorbent paper. […] The tubes carrying the eggs were closed with hydrophilic cotton, and were returned to the incubator chamber under the same conditions until the eggs hatched. The reproductive efficacy, as well as % control of each compound on R. microplus, was calculated according to published reports. The results were verified in two independent experiments. This assay was performed based on the method of Castro-Janer et al., 2011. […] The tubes were incubated in the same conditions as described above. The larvae were ready for testing after 14 to 21 days from egg-hatching. For the test, the compounds were diluted in DMSO, and were later resuspended in distilled water, always using 15% DMSO of the final solution volume. […] For the immersion procedure, tubes containing the larvae were placed vertically, without the cotton plug, and the larvae were taken with a brush from the top of the tube, ensuring they were viable. A cluster with a diameter of 2 mm of larvae was collected with a brush, and was later immersed in each solution, as well as in both control solutions, for 10 min. After this time, the solutions were drained, and the larvae were placed in 8.5 cm × 7.5 cm Whatman No. 1 filter papers. The filters were folded in the middle of the 8.5 cm side, and closed with 3 bulldog clips, forming packets. These packets were incubated for 24 h, under the same conditions as described previously, and then the percent of mortality was determined, considering it as the % of the control.

[4] = system: embryonic cell line BME26; experiment: Phenotypic screening on BME26 cell cultures (MTT viability); format: cell-based, R. microplus; conditions: for inhibition at 100 µM: read-out: % of Growth Inhibition
Description: The embryonic cell line BME26 from R. microplus (Centro de Biotecnologia, Universidade Federal do Rio Grande do Sul, Porto Alegre, RS, Brazil) was grown as adherent monolayers in a complete medium, as described previously, which consisted of L-15B300 medium supplemented with 5% heat-inactivated Fetal Bovine Serum (FBS) (Gibco Co., Grand Island, NY), 10% Tryptose Phosphate Broth (TPB) (BD), penicillin (100 U/mL), streptomycin ([…], Gibco Co., Grand Island, NY, USA), and 0.1% bovine lipoprotein concentrate (ICN), (pH 7.2). The suspension of embryonic BME26 cells from R. microplus was seeded into 24-well plates (5 × 10^5 cells/well) to a final volume of 500 μL in a complete medium, and allowed to attach. After 24 h incubation at 34 °C, the extracts (100 µg/mL final concentration) and the compounds were added to the final concentrations indicated (1–100 µM), and 0.05% dimethylsulfoxide (DMSO) was used in the negative control wells. After 24 h of treatment, 50 μL of 3-(4,5-dimethylthiazol-2-yl)-2,5-diphenyltetrazolium bromide (MTT) prepared in serum-free medium (5 mg/mL) was added to each well. The media were discarded after 2 additional hours of incubation, and 1 mL of acid-isopropyl alcohol (0.15% HCl in isopropyl alcohol) was added to dissolve the formazan crystals. The mixture was transferred to 1.5 mL tubes, centrifuged at 6000× g for 15 min, and the clear supernatant was collected in new tubes for absorbance measurement at 570 nm using quartz cuvettes in a UVmini-1240 UV–vis spectrophotometer (Shimadzu, Japan). Absorbance values of the control treatment were used for normalization (100% viability). The activity was determined by analysis using OriginLab8.5® sigmoidal regression (% of viable cells compared to the logarithm of the compound concentration). The half-maximal inhibitory concentration (IC50), defined as the drug concentration at which 50% of the cells were viable relative to the control (no drug added), was used as a measurement of activity. These experiments were performed in triplicate for each compound.

[5] = system: fully engorged females of the Mozo susceptible strain of R. microplus; experiment: Adult Immersion Test (AIT); format: in vivo; conditions: compounds 1.5 mM, 15 min immersion, 14 days
Description: This essay was performed based on Drummond et al., 1973, as each group of 5 fully engorged females of the Mozo susceptible strain of R. microplus was immersed in 50 mL tubes containing 10 mL of compounds at different concentrations (0.5, 1, 1.5, 2, 3.5 mM) for 15 min in four replicates. Four negative control groups were used (DMSO 10%). After immersion, the fully engorged females were lightly dried with absorbent paper. They were then placed in 100 mm disposable Petri dishes with their respective identification, and immediately incubated at 27 °C in an atmosphere with relative humidity (RH) of 85-90% for 14 days. […] The tubes carrying the eggs were closed with hydrophilic cotton, and were returned to the incubator chamber under the same conditions until the eggs hatched. The reproductive efficacy, as well as % control of each compound on R. microplus, was calculated according to published reports. The results were verified in two independent experiments.

[6] = BME26 cells, 24 h, MTT, read-out: IC50
[7] = synthetic compounds at 100 μM, BME26, 24 h
[8] = Mus musculus, J774.1, cytotoxicity

Sequence of R. microplus triosephosphate isomerase (RmTIM) (A8B3A8 entry or part of it): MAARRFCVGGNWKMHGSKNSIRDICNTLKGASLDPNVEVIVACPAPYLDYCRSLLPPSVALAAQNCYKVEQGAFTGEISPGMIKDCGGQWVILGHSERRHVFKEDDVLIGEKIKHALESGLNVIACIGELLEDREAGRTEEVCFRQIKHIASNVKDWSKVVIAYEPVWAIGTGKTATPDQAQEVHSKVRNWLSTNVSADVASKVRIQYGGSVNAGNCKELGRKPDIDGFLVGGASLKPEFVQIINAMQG

Row | Structure (SMILES) | IC50 ([1]; read-out: IC50) | acaricidal activity (in words) (R. microplus) | IC50 [4, 6] | inhibition at 100 µM [4, 7] | IC50 ([2]; Mus musculus) | other results
1 | COc1ccc(/C=C2\CCCC3C2=NN(c2ccccn2)C3c2ccc(OC)cc2)cc1 (stereo not drawn) [Dm97] | – | – | – | – | – | inhibition at 100 µM [1]: 0%
2 | COc1cc(/C=C/C(=O)CC(=O)/C=C/[c-]2cccc2)ccc1O.[Fe+2].c1cc[cH-]c1 [Mar105, [(1E,6E)-7-(4-hydroxy-3-methoxyphenyl)-3,5-dioxo-1,6-heptadien-1-yl]ferrocene] | 10 ± 1 µM | did not show reproducible acaricidal activity | – | – | – | EC50 ([2]; cytotoxicity): > 25 µM; % Inhibition of Enzymatic Activity of HsTIM at 10 µM ([3]; at 10 µM): 0%
3 | C=CCn1c(-c2ccc(Cl)cc2)cs/c1=N/N=C/c1cccs1 [compound 133] | – | – | > 50 µM | 71% | > 50 µM | –
4 | Nc1ccc2c(c1)[n+]([O-])c1cc(Br)ccc1[n+]2[O-] [compound 181] | – | – | – | 90% | < 25 µM | –
5 | [O-][n+]1c2ccc(O)cc2[n+]([O-])c2cc(Cl)c(Cl)cc21 [compound 183] | – | – | – | 62% | < 25 µM | –
6 | C=CCn1c(-c2ccc(Cl)cc2)cs\c1=N/N=C/C=C/c1ccco1 [compound 266] | – | acaricidal potential against R. microplus similar to Amitraz | > 100 µM | 77% | > 50 µM | –
7 | O=C(Oc1ccccc1)N1CCN(C(=O)Oc2ccccc2)CC1 [compound 715] | – | – | – | – | – | IC50 ([4]; 24 h): > 50 µM; inhibition at 100 µM ([4]; 24 h): 64%
8 | O=C(/C=C/c1ccco1)/C=C/c1ccco1 [compound 795] | – | acaricidal potential | 20 ± 3 µM | 80% | > 50 µM | % of Mortality AIT [5]: 70 ± 7%
9 | CC(/C=C/C(=O)/C=C/C(C)=C/c1ccco1)=C\c1ccco1 [compound 809] | – | – | > 100 µM | 50% | > 50 µM | –
10 | Cc1ccc(/C=C/C=N/N2CCN(C/C=C/c3ccccc3)CC2)o1 [compound 903] | – | – | > 50 µM | 75% | > 50 µM | % of Mortality AIT [5]: 10 ± 1%
11 | COc1cc(/C=C/C(=O)CC(=O)/C=C/c2ccc(O)c(OC)c2)ccc1O [compound 906, curcumin] | – | acaricidal potential against R. microplus similar to Amitraz | 24 ± 3 µM | 95% | < 25 µM | % of Mortality AIT [5]: 60 ± 8%
12 | C(=C\c1ccco1)/C=N/N1CCN(C/C=C/c2ccccc2)CC1 [compound 912] | – | – | > 50 µM | 52% | > 50 µM | % of Mortality AIT [5]: 30 ± 8%
13 | O=c1cc(O)n(Cc2ccccc2)c(=S)n1Cc1ccccc1 [compound 1088] | > 50 µM | – | – | – | – | –
14 | O=C(N/N=C/C=C/c1ccco1)c1cnn(-c2ccccc2)c1 [compound 1366] | – | – | – | – | – | inhibition at 100 µM [1]: 38%
15 | CC(/C=N/NC(=[Se])NCCN1CCOCC1)=C\c1ccco1 [compound 1378] | – | – | – | – | – | IC50 ([1]; IC50 (µM)): 30 µM; inhibition at 100 µM [1]: 77%; inhibition at 10 µM [3]: 0%
16 | FC(F)(F)C1=CSC(Nc2ccccc2)N1Cc1ccco1 (stereo not drawn) [compound 1385] | < 10 µM | did not show reproducible acaricidal activity | – | – | – | EC50 [2, 8]: > 50 µM; inhibition at 10 µM [1]: 89%
17 | CN=C1C=CC(=C(c2ccc(N(C)C)cc2)c2ccc(N(C)C)cc2)C=C1 [compound 1386] | < 10 µM | did not show reproducible acaricidal activity | – | – | – | inhibition at 10 µM [1]: 100%
18 | COc1ccc(/C=C/c2ccc3no[n+]([O-])c3c2)cc1 [compound 1404] | < 10 µM | did not show reproducible acaricidal activity | – | – | – | EC50 [2, 8]: > 50 µM; inhibition at 10 µM [1]: 100%
19 | O=C1C(Cl)=C(Oc2cccc3ccccc23)C(=O)c2ccccc21 [compound 1408] | > 50 µM | – | – | – | – | inhibition at 100 µM [1]: 72%
